Laboratory results from patent US6410585B1, “Inhibitors of protein tyrosine phosphatase” (priority 1997, dated 2002).
Several values for one entry are separate records, joined by “and”; a condition that tells them apart may be missing. Identical values can stand only once.

Key:
human PTP1B = molecular target: T1, human PTP1B (Homo sapiens, UniProt P18031); assay: PTP1B assay, pNPP hydrolysis, assayed exactly as for PTP1; format: biochemical; conditions: for inhibition at 1 µM: Conc 1 uM; for inhibition at 1 µM / inhibition at 10 µM / inhibition at 100 µM: Table 2, read-out: PTP1B Inhib PTP1B. % Inhib; for PTP1B Inhib PTP1B. % Inhib: Table 2
T1 construct: human PTP1B (amino acid residues 1-321); made in house; host or cells: E. coli BL21(DE3)
T1 sequence (P18031 1-321): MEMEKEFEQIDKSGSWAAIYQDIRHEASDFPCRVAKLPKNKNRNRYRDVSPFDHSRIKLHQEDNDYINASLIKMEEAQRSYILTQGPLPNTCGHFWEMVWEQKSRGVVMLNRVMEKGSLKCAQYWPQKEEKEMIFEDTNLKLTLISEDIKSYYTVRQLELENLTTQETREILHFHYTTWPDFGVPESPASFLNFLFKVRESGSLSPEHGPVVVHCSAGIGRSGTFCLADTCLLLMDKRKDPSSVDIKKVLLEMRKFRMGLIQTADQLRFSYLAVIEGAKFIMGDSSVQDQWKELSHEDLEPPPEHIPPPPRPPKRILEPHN
Source text: The equivalent construct of human PTP1B (amino acid residues 1-321) (cloned from a human placental library), without the GST tag and thrombin cleavage site, was inserted into a pMB replicon and transformed into E. coli BL21(DE3), a strain containing a chromosomal copy of the gene for T7 RNA polymerase under control of a lacUV5 promoter. Expression of PTP1B was induced with isopropyl thiogalactose and the soluble protein was purified by ion exchange, hydrophobic interaction and gel exclusion chromatography for use in the assay to identify PTP inhibitors.
PTP1 activity is measured using either p-nitrophenol phosphate (pNPP) or a triphosphopeptide (that matches residues 1142 through 1153 of the β-subunit and the insulin receptor) as substrate in a 96-well microtiter plate format. An assay pH of 7.2 is used for standard assays (measured 405=9800 at pH 7.2).
Human PTP1B, which is highly homologous to rat PTP1, was assayed exactly as described above for PTP1.
Standard assays are conducted at room temperature in a total volume of 0.2 ml that contains Hepes buffer (50 mM, pH 7.2), NaCl (50 mM), EDTA (1 mM), DTT (1 mM), bovine serum albumin (1 mg/ml), pNPP (1 mM) and PTP1 (35 ng/ml). Compounds (2 μl of 10 mM solutions) are pipetted into wells of microtiter plates followed by 198 μl of premixed reaction mix (with PTP1 and pNPP added immediately before use). The rate of change in A405 is recorded for 60 min. Two wells on each plate contain DMSO controls and two wells contain sodium orthovanadate (1 mM) which inhibits PTP1-catalyzed hydrolysis of pNPP completely. Data are expressed as percent inhibition relative to the average of the DMSO controls measured on the same microtiter plate.

rat PTP1 = molecular target: T2, rat PTP1 (Rattus norvegicus, UniProt P20417); assay: PTP1 assay, pNPP hydrolysis (rate of change in A405); format: biochemical; conditions: for inhibition at 1 µM: Conc 1 uM; for inhibition at 1 µM / inhibition at 10 µM / inhibition at 100 µM: pNPP hydrolysis, Table 2, read-out: PTP1 Inhib PTP1N. % Inhib; for inhibition at 10 µM: Conc 10 uM; for inhibition at 100 µM: Conc 100 uM; for Ki: calculated from IC50-values obtained from a dose-response curve using the inhibition assay
T2 construct: a C-terminal truncation of rat PTP1 (amino acid residues 1-322); GST (N, cleaved yes); made in house; host or cells: E. coli strain TG-1 (pGEX-2T)
T2 sequence (P20417 1-322): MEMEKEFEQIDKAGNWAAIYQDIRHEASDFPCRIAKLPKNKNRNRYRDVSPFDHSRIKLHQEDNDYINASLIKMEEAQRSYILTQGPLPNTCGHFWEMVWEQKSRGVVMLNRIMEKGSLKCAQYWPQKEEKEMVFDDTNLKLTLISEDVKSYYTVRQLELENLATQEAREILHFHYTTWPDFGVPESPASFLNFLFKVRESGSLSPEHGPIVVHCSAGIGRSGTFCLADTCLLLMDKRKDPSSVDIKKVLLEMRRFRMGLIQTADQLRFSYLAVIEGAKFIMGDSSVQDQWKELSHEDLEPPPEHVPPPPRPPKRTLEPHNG
Procedure, shortened: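 Thrombin-cleaved rat PTP1 residues 1-322 (35 ng/ml) with 1 mM pNPP in 50 mM Hepes pH 7.2, NaCl, EDTA, DTT, BSA at room temperature. A405 rate followed 60 min. Compounds added as 10 mM solutions; percent inhibition relative to plate DMSO controls, 1 mM orthovanadate as full-inhibition control.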

SMILES | inhibition at 1 µM (human PTP1B) [%] | inhibition at 10 µM (human PTP1B; Conc 10 uM) [%] | inhibition at 100 µM (human PTP1B; Conc 100 uM) [%] | inhibition at 1 µM (rat PTP1) [%] | inhibition at 10 µM (rat PTP1) [%] | inhibition at 100 µM (rat PTP1) [%] | melting point [°C] | Ki (rat PTP1) [µM] | PTP1B Inhib PTP1B. % Inhib (human PTP1B; Conc 10 uM) | PTP1B Inhib PTP1B. % Inhib (human PTP1B; Conc 100 uM)
CCCCCNC(=O)C(Cc1ccc(OC(COO)COO)cc1)NC(=O)C(C)NC(=O)OC(C)(C)C (stereo not shown) | 7 | 36 | 83 | 0 | 22 | 76 | – | – | – | –
O=C(O)COc1ccc(C[C@H](NC(=O)c2ccccc2)C(=O)NCCCCc2ccccc2)cc1-c1nn[nH]n1 [Example 146, 2-[4-{(2S)-2-(benzoylamino)-3-oxo-3-[(4-phenylbutyl)amino]-propyl}-2-(2H-1,2,3,4-tetrazol-5-yl)phenoxy]acetic Acid] | – | – | – | – | – | – | 223 to 225 | 20 | – | –
O=C(O)COc1ccc(C[C@H](NC(=O)c2ccoc2)C(=O)NCCCCc2ccccc2)cc1-c1nn[nH]n1 [Example 147, 2-[4-{(2S)-2-(3-furoylamino)-3-oxo-3-[(4-phenylbutyl)amino]-propyl}-2-(2H-1,2,3,4-tetrazol-5-yl)phenoxy]acetic Acid] | – | – | – | – | – | – | 230 to 233 | 46 | – | –
CCCCCNC(=O)[C@@H](Cc1ccc(OCC(=O)O)c(C(=O)O)c1)NC(=O)Cc1ccccc1OC [Example 153, 2-(carboxymethoxy)-5-[(2R)-2-{[2-(2-methoxyphenyl)acetyl]amino}-3-oxo-3-(pentylamino)propyl]benzoic Acid] | – | – | – | – | – | – | 146 to 148 | 30 | – | –
CCCCCNC(=O)[C@H](Cc1ccc(OCC(=O)O)c(C(=O)O)c1)NC(=O)[C@@H](Cc1ccccc1)N1CCCC1=O [Example 143, 2-(carboxymethoxy)-5-[(2S)-3-oxo-2-{[(2R)-2-(2-oxo-1-pyrrolidinyl)-3-phenylpropanoyl]amino}-3-(pentylamino)propyl]benzoic Acid] | – | – | – | – | – | – | 96 to 97 | – | – | –
CC(C)(C)OC(=O)N[C@@H](Cc1ccccc1)C(=O)N[C@H](CO)Cc1ccc(OCC(=O)O)c(C(=O)O)c1 [Example 138, 5-[(2S)-2-({(2S)-2-[(tert-butoxycarbonyl)amino]-3-phenylpropanoyl}amino)-3-hydroxypropyl]-2-(carboxymethoxy)benzoic Acid] | – | – | – | – | – | – | 168.8 to 172.3 | – | – | –

Results, then the compound that gave them:

inhibition at 1 µM (human PTP1B) [%] | inhibition at 10 µM (human PTP1B; Conc 10 uM) [%] | inhibition at 100 µM (human PTP1B; Conc 100 uM) [%] | inhibition at 1 µM (rat PTP1) [%] | inhibition at 10 µM (rat PTP1) [%] | inhibition at 100 µM (rat PTP1) [%] | melting point [°C] | Ki (rat PTP1) [µM] | PTP1B Inhib PTP1B. % Inhib (human PTP1B; Conc 10 uM) | PTP1B Inhib PTP1B. % Inhib (human PTP1B; Conc 100 uM) | SMILES
14 | 63 | 97 | 8 | 55 | 96 | – | – | – | – | CCCCCNC(=O)C(Cc1ccc(OC(COO)C(=O)O)cc1)NC(=O)NC(Cc1ccc(OCc2ccccc2)cc1)C(=O)O (stereo not shown)
7 | 48 | 91 | 9 | 42 | 88 | – | – | – | – | CCCCCNC(=O)C(Cc1ccc(OC(COO)COO)cc1)NC(=O)C(Cc1ccccc1)NC(=O)OC(C)(C)C (stereo not shown)
9 | 42 | 90 | 10 | 44 | 91 | – | – | – | – | CCCCCNC(=O)C(Cc1ccc(OC(COO)COO)cc1)NC(=O)C(Cc1ccc(C(=O)c2ccccc2)cc1)NC(=O)OC(C)(C)C (stereo not shown)
– | – | – | 40 | 84 | 97 | – | – | 78% and 54% and 43% | 97% and 89% and 87% | CCCCCNC(=O)C(Cc1ccc(OCCOO)c(COO)c1)NC(=O)C(Cc1ccccc1)NC(=O)OC(C)(C)C (stereo not shown) [drawing 162]
45 | 87 | 99 | 37 | 84 | 97 | – | – | – | – | CCCCCNC(=O)C(Cc1ccc(OC(COO)COO)cc1)NC(=O)C(Cc1ccccc1)NC(=O)CCC(=O)O (stereo not shown)
